Key:
[1] = biological target: T1, TSTA3 GDP-L-fucose synthase (Homo sapiens, UniProt Q13630); assay: competitive isoTOP-ABPP; type: binding; conditions: for R value (DMSO/fragment) for probe 1 labeling: Q13630_K108; for R value (DMSO/fragment) for probe 1 labeling / isoTOP-ABPP reactivity ratio at lysine Q13630_K108 / isoTOP-ABPP ratio (R) at liganded lysine Q13630_K108: 50 uM, in vitro; for R value (DMSO/fragment) for probe 1 labeling / isoTOP-ABPP reactivity ratio at lysine Q13630_K108: 231 sol; for isoTOP-ABPP ratio (R) at liganded lysine Q13630_K108: sol, 231
T1 construct: isoTOP-ABPP experiments performed in cell lysates (in vitro); endogenous in cells; host or cells: soluble proteome of human cancer cell lines (MDA-MB-231, Ramos, Jurkat)
T1 sequence (Q13630 whole entry, the tested form may be a part): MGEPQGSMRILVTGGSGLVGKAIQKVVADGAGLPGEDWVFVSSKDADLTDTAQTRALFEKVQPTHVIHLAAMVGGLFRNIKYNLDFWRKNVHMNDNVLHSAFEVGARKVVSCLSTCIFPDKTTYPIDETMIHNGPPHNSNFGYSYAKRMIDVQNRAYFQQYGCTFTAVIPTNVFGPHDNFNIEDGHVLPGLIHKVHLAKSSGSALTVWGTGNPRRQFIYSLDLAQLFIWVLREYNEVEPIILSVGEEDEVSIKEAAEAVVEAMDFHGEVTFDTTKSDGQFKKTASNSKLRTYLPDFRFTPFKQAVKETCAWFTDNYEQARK
Procedure, shortened: (§1)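 Probe: STP-alkyne, 0.1 mM, 1 h RT, after fragment pretreatment of lysate (esters 50 μM; guanidinylators 100 μM). Tags: light = compound, heavy = DMSO, via CuAAC. Replicates averaged if SD <60% of mean; otherwise lowest ratio used when any R <4.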

RTN4 Reticulon-4 = biological target: T2, RTN4 Reticulon-4 (Homo sapiens, UniProt Q9NQC3); assay: competitive isoTOP-ABPP; type: binding; conditions: for R value (DMSO/fragment) for probe 1 labeling: Q9NQC3_K1104; for R value (DMSO/fragment) for probe 1 labeling / isoTOP-ABPP reactivity ratio at lysine Q9NQC3_K1104 / isoTOP-ABPP ratio (R) at liganded lysine Q9NQC3_K1104: 50 uM, in vitro; for R value (DMSO/fragment) for probe 1 labeling / isoTOP-ABPP reactivity ratio at lysine Q9NQC3_K1104: 231 sol; for isoTOP-ABPP ratio (R) at liganded lysine Q9NQC3_K1104: sol, 231
T2 construct: endogenous in cells; host or cells: MDA-MB-231 lysate
T2 sequence (Q9NQC3 1-1192): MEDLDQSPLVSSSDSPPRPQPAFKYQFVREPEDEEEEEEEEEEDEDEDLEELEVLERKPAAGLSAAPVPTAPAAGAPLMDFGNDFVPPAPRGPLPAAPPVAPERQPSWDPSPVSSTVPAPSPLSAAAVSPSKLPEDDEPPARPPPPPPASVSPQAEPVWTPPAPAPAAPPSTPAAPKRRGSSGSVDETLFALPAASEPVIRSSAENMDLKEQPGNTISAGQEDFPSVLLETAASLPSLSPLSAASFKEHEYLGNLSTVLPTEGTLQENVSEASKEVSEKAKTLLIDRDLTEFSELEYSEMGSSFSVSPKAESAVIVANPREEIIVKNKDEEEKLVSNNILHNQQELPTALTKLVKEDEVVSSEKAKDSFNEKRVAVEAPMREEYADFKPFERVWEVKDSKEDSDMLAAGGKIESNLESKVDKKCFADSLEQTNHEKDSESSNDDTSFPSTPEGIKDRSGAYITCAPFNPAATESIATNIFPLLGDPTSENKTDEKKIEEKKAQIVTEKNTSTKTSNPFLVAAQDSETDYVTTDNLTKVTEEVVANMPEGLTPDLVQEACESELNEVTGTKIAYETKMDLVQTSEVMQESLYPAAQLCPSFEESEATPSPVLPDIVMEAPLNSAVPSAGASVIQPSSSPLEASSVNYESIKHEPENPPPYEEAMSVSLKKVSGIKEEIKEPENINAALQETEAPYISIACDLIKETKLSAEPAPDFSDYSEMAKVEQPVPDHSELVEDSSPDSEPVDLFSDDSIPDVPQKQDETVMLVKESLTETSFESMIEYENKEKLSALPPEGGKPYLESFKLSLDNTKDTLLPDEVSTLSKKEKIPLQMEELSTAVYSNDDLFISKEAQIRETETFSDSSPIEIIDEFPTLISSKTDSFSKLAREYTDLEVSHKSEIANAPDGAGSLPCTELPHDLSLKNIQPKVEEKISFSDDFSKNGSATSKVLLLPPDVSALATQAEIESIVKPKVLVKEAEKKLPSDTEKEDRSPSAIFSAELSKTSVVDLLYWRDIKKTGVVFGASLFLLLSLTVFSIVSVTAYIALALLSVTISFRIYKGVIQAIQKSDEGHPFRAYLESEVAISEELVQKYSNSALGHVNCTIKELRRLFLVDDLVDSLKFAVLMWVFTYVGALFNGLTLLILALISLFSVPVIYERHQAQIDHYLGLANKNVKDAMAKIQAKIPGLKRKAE
Procedure, shortened: as §1

O=C(CCc1cn(-c2ccccc2)nc1-c1ccccc1)Oc1c(F)c(F)c(F)c(F)c1F [fragment 19, Pentafluorophenyl 3-(1,3-diphenyl-1H-pyrazol-4-yl)propanoate]
R value (DMSO/fragment) for probe 1 labeling [1]: 0.8

O=C(Oc1c(F)c(F)c(F)c(F)c1F)C(c1ccccc1)c1ccccc1 [fragment 20, Pentafluorophenyl 2,2-diphenylacetate]
R value (DMSO/fragment) for probe 1 labeling (RTN4 Reticulon-4): 2.4

O=C(Oc1c(F)c(F)c(F)c(F)c1F)c1cc(C(F)(F)F)cc(C(F)(F)F)c1 [fragment 21, Pentafluorophenyl 3,5-bis(trifluoromethyl)benzoate]
R value (DMSO/fragment) for probe 1 labeling [1]: 1.0
R value (DMSO/fragment) for probe 1 labeling (RTN4 Reticulon-4): 2.5

Cn1cc(CC(=O)Oc2c(F)c(F)c(F)c(F)c2F)c2ccccc21 [fragment 22, Pentafluorophenyl 2-(1-methyl-1H-indol-3-yl)acetate]
R value (DMSO/fragment) for probe 1 labeling [1]: 1.1

COc1cc(CCC(=O)Oc2c(F)c(F)c(F)c(F)c2F)cc(OC)c1OC [fragment 23, Pentafluorophenyl 3-(3,4,5-trimethoxyphenyl)propanoate]
R value (DMSO/fragment) for probe 1 labeling [1]: 1.0
R value (DMSO/fragment) for probe 1 labeling (RTN4 Reticulon-4): 3.3

O=C(Oc1c(F)c(F)c(F)c(F)c1F)C1CCN(C(=O)OCc2ccccc2)CC1 [fragment 24, 1-Benzyl 4-(pentafluorophenyl) piperidine-1,4-dicarboxylate]
isoTOP-ABPP reactivity ratio at lysine Q13630_K108 [1]: 0.6
isoTOP-ABPP reactivity ratio at lysine Q9NQC3_K1104 (RTN4 Reticulon-4): 2.3

O=C(CCc1coc2cc(F)ccc2c1=O)Oc1c(F)c(F)c(F)c(F)c1F [fragment 26, Pentafluorophenyl 3-(7-fluoro-4-oxo-4H-chromen-3-yl)propanoate]
isoTOP-ABPP reactivity ratio at lysine Q13630_K108 [1]: 1.4
isoTOP-ABPP reactivity ratio at lysine Q9NQC3_K1104 (RTN4 Reticulon-4): 5.3

O=C(CN1C(=O)c2ccccc2C1=O)Oc1c(F)c(F)c(F)c(F)c1F [fragment 27, Pentafluorophenyl 2-(1,3-dioxoisoindolin-2-yl)acetate]
isoTOP-ABPP reactivity ratio at lysine Q13630_K108 [1]: 4.6

CCn1cc(C(=O)Oc2c(F)c(F)c(F)c(F)c2F)c(=O)c2ccc(C)nc21 [fragment 28, Pentafluorophenyl 1-ethyl-7-methyl-4-oxo-1,4-dihydro-1,8-naphthyridine-3-carboxylate]
isoTOP-ABPP reactivity ratio at lysine Q13630_K108 [1]: 1.0
isoTOP-ABPP reactivity ratio at lysine Q9NQC3_K1104 (RTN4 Reticulon-4): 1.0

O=C(CCc1cn(-c2ccccc2)nc1-c1ccccc1)Oc1ccc([N+](=O)[O-])cc1[N+](=O)[O-] [fragment 29, 2,4-Dinitrophenyl 3-(1,3-diphenyl-1H-pyrazol-4-yl)propanoate]
isoTOP-ABPP reactivity ratio at lysine Q13630_K108 [1]: 1.1
isoTOP-ABPP reactivity ratio at lysine Q9NQC3_K1104 (RTN4 Reticulon-4): 15.6

O=C(Oc1ccc([N+](=O)[O-])cc1[N+](=O)[O-])c1cc(C(F)(F)F)cc(C(F)(F)F)c1 [fragment 31, 2,4-Dinitrophenyl 3,5-bis(trifluoromethyl)benzoate]
isoTOP-ABPP reactivity ratio at lysine Q9NQC3_K1104 (RTN4 Reticulon-4): 6.1

Cn1cc(CC(=O)Oc2ccc([N+](=O)[O-])cc2[N+](=O)[O-])c2ccccc21 [fragment 32, 2,4-Dinitrophenyl 2-(1-methyl-1H-indol-3-yl)acetate]
isoTOP-ABPP reactivity ratio at lysine Q9NQC3_K1104 (RTN4 Reticulon-4): 20.0

COc1cc(CCC(=O)Oc2ccc([N+](=O)[O-])cc2[N+](=O)[O-])cc(OC)c1OC [fragment 33, 2,4-Dinitrophenyl 3-(3,4,5-trimethoxyphenyl)propanoate]
isoTOP-ABPP reactivity ratio at lysine Q13630_K108 [1]: 1.2
isoTOP-ABPP reactivity ratio at lysine Q9NQC3_K1104 (RTN4 Reticulon-4): 4.3

O=C(Oc1ccc([N+](=O)[O-])cc1[N+](=O)[O-])c1ccc2ccccc2n1 [fragment 35, 2,4-Dinitrophenyl quinoline-2-carboxylate]
isoTOP-ABPP ratio (R) at liganded lysine Q9NQC3_K1104 (RTN4 Reticulon-4): 6.0

O=C(Oc1ccc([N+](=O)[O-])cc1[N+](=O)[O-])c1ccc(-c2ccccc2)cc1 [fragment 37, 2,4-Dinitrophenyl [1,1′-biphenyl]-4-carboxylate]
isoTOP-ABPP ratio (R) at liganded lysine Q13630_K108 [1]: 2.9
isoTOP-ABPP ratio (R) at liganded lysine Q9NQC3_K1104 (RTN4 Reticulon-4): 3.4

O=C(CC12CC3CC(CC(C3)C1)C2)Oc1ccc([N+](=O)[O-])cc1[N+](=O)[O-] [fragment 38, 2,4-Dinitrophenyl 2-(adamantan-1-yl)acetate]
isoTOP-ABPP ratio (R) at liganded lysine Q13630_K108 [1]: 0.9

O=C(Oc1ccc([N+](=O)[O-])cc1[N+](=O)[O-])c1ccccc1Nc1cccc(C(F)(F)F)c1 [fragment 40, 2,4-Dinitrophenyl 2-((3-(trifluoromethyl)phenyl)amino)benzoate]
isoTOP-ABPP ratio (R) at liganded lysine Q13630_K108 [1]: 0.9
isoTOP-ABPP ratio (R) at liganded lysine Q9NQC3_K1104 (RTN4 Reticulon-4): 2.1

CC(C)(C)OC(=O)NCCCC(=O)Oc1ccc([N+](=O)[O-])cc1[N+](=O)[O-] [fragment 41, 2,4-Dinitrophenyl 4-((tert-butoxycarbonyl)amino)butanoate]
isoTOP-ABPP ratio (R) at liganded lysine Q13630_K108 [1]: 1.3
isoTOP-ABPP ratio (R) at liganded lysine Q9NQC3_K1104 (RTN4 Reticulon-4): 4.3

O=C(Oc1ccc([N+](=O)[O-])cc1[N+](=O)[O-])C(c1ccccc1)(c1ccccc1)c1ccccc1 [fragment 42, 2,4-Dinitrophenyl 2,2,2-triphenylacetate]
isoTOP-ABPP ratio (R) at liganded lysine Q13630_K108 [1]: 1.0
isoTOP-ABPP ratio (R) at liganded lysine Q9NQC3_K1104 (RTN4 Reticulon-4): 1.2

CC(=O)Oc1ccc([N+](=O)[O-])cc1[N+](=O)[O-] [fragment 43, 2,4-Dinitrophenyl acetate]
isoTOP-ABPP ratio (R) at liganded lysine Q9NQC3_K1104 (RTN4 Reticulon-4): 1.4

N#Cc1ccc(C(=O)Oc2ccc([N+](=O)[O-])cc2[N+](=O)[O-])cc1 [fragment 44, 2,4-Dinitrophenyl 4-cyanobenzoate]
isoTOP-ABPP ratio, lysine Q9NQC3_K1104 (RTN4 Reticulon-4; 50 uM_231_sol_in vitro): 2.6

O=C(CCc1ccc2c(c1)OCO2)Oc1ccc([N+](=O)[O-])cc1[N+](=O)[O-] [fragment 45, 2,4-Dinitrophenyl 3-(benzo[d][1,3]dioxol-5-yl)propanoate]
isoTOP-ABPP ratio, lysine Q13630_K108 ([1]; 50 uM_231_sol_in vitro): 20.0

O=C(ON1C(=O)CCC1=O)c1cc(C(F)(F)F)cc(C(F)(F)F)c1 [fragment 46, 3,5-Bis(trifluoromethyl)benzoic acid NHS ester]
isoTOP-ABPP ratio, lysine Q13630_K108 ([1]; 50 uM_231_sol_in vitro): 2.7
isoTOP-ABPP ratio, lysine Q9NQC3_K1104 (RTN4 Reticulon-4; 50 uM_231_sol_in vitro): 2.5

O=C(Oc1c(F)c(F)c(C(F)(F)F)c(F)c1F)c1cc(C(F)(F)F)cc(C(F)(F)F)c1 [fragment 47, 2,3,5,6-Tetrafluoro-4-(trifluoromethyl)phenyl 3,5-bis(trifluoromethyl)benzoate]
isoTOP-ABPP ratio, lysine Q9NQC3_K1104 (RTN4 Reticulon-4; 50 uM_231_sol_in vitro): 3.8

CC(C)(C)OC(=O)N=C(NC(=O)OC(C)(C)C)n1cccn1 [fragment 50, reference compound]
isoTOP-ABPP ratio, lysine Q13630_K108 ([1]; 100 uM_231_sol_in vitro): 1.0
isoTOP-ABPP ratio, lysine Q9NQC3_K1104 (RTN4 Reticulon-4; 100 uM_231_sol_in vitro): 1.4

NC(=O)c1cc(C(F)(F)F)cc(C(F)(F)F)c1 [fragment 51, reference compound]
isoTOP-ABPP ratio, lysine Q9NQC3_K1104 (RTN4 Reticulon-4; 50 uM_231_sol_in vitro): 0.7

— patent publication US20210255193A1, “LYSINE REACTIVE PROBES AND USES THEREOF” (The Scripps Research Institute, priority 2017, published 2021)
